Results as given in US10160867B2, “Benzoxaborole-containing coating resistant to cellulose-supportable fungus” (THE PENN STATE RESEARCH FOUNDATION, priority 2015, dated 2018).
≈ marks a conversion by molar mass, not a printed value.

Key:
[1] = tested on: Alternaria alternata; assay: Painted discs with or without UV irradiation before inoculation (defacement); format: cell-based; parameters: key: rating 10 = 0% defacement to 0 = 91-100% defacement; conditions: +100 μg/mL in Olympic Home latex paint
Procedure: In a separate study, painted filter paper discs were irradiated with UV light from a 30 watt bulb for 2 hours and then inoculated with Alternaria alternata spores (“+UV” in the table below), or were inoculated without prior UV irradiation (“no UV” in the Table 4). The painted filter papers were incubated as discussed elsewhere herein, evaluated at 13 and 21 days post-inoculation for defacement by fungal growth and compared to similar painted filter paper discs that were not irradiated prior to inoculation.
Samples were evaluated at regular intervals. The intensity of the fungal growth was rated by estimating the percentage of surface defacement using the following ratings: 10: 0% defacement; 9=1-10% defacement; 8=11-20% defacement; 7=21-30% defacement; 6=31-40% defacement; 5=41-50% defacement; 4=51-60% defacement; 3=61-70% defacement; 2=71-80% defacement; 1=81-90% defacement; and 0=91-100% defacement. A grid that divides the circular area into 20 equal sections as shown in FIG. 1 was used to estimate the extent (percent defacement) of fungal growth.

[2] = Solubility in water
[3] = +UV (30 watt bulb, 2 hours, before inoculation), 13 days
[4] = +UV (30 watt bulb, 2 hours, before inoculation), 21 days

| SMILES | Average Defacement ± standard deviation for 3 replicates [1, 3] | Average Defacement ± standard deviation for 3 replicates [1, 4] | Average Defacement ± standard deviation for 3 replicates ([1]; no UV, 13 days) | Average Defacement ± standard deviation for 3 replicates ([1]; no UV, 21 days) | solubility [2] |
| --- | --- | --- | --- | --- | --- |
| OB1OCc2cc(F)ccc21 [Compound B9, 5-Fluoro-1,3-dihydro-2,1-benzoxaborol-1-ol] | 10.0 ± 0.0 | 8.3 ± 2.1 | 10.0 ± 0.0 | 9.0 ± 0.0 | 0.8 mg/mL (≈ 5.27 mM) |
| CCCCNC(=O)OCC#CI [IPBC, 3-Iodo-2-propynylbutylcarbamate] | 9.7 ± 0.6 | 6.0 ± 4.4 | 8.3 ± 2.1 | 4.0 ± 4.0 | – |
